{"source": "patent US11160887B2", "about": "“Compositions for use in diagnosing and treating melanoma, including metastatic melanoma and methods related to same” (UNM RAINFOREST INNOVATIONS, priority 2008, dated 2021)", "key": {"[1]": {"system": "B16/F10 pulmonary melanoma metastases", "assay_type": "in vivo, mouse", "settings": "mouse, in vivo", "procedure": "Metastatic Melanoma Imaging: A pulmonary metastatic melanoma-bearing mouse was used for [^18F]FDG PET imaging 16 days after the cell injection and used for ^111In-DOTA-GlyGlu-CycMSH SPECT/CT imaging on next day (a time interval of 26 h) to compare the difference in detection efficiency between [^18F]FDG and ^111In-DOTA-GlyGlu-CycMSH. The mouse was injected with 35.15 MBq of commercial [^18F]FDG (Biotech, N. Mex.) via the tail vein. At 1 h post-injection, the mouse was anesthetized with 1.5% isoflurane and placed in the prone position near the center of the field of view of small animal PET (LabPET™) (Gamma Medica-Ideas, Sherbrooke, Quebec). A 30-min static scan was acquired, and the image was reconstructed by maximum likelihood estimation method (MLEM). The mouse was returned to the cage for recovery after the ^18F-FDG PET imaging study was completed. The same mouse was injected with 24.05 MBq of ^111In-DOTA-GlyGlu-CycMSH via the tail vein 24 h after the ^18F-FDG PET imaging study. The mouse was anesthetized with 1.5% isoflurane for small animal SPECT/CT (Nano-SPECT/CT®, Bioscan) imaging 2 h post-injection. The 6-min CT imaging was immediately followed by the focused SPECT imaging of lung. The SPECT scans of 24 projections were acquired and total acquisition time was 45 min. After the focused lung imaging, the mouse was sacrificed with CO2 inhalation for whole-body SPECT/CT imaging. The 9-min CT imaging was immediately followed by the SPECT imaging of whole-body. Reconstructed data from SPECT and CT were visualized and co-registered using InVivoScope (Bioscan, Washington D.C.). Necropsy analysis of the mouse was performed to confirm the pulmonary metastatic melanoma lesions after the SPECT/CT imaging studies were completed. To monitor the development of pulmonary melanoma metstases with ^111In-DOTA-GlyGlu-CycMSH, a pulmonary metastatic melanoma-bearing mouse was injected with 10.36 MBq of ^111In-DOTA-GlyGlu-CycMSH through the tail vein for small animal SPECT/CT imaging 20 days after the cell injection. […]"}, "[2]": {"test": "Stability in mouse serum monitored by RP-HPLC", "assay_type": "in vitro ADME", "settings": "37° C., 24 h incubation", "procedure": "Complexation of the Peptide with ^111In: ^111In-DOTA-CycMSH and ^111In-DOTA-GlyGlu-CycMSH were prepared using a 0.5 M NH4OAc-buffered solution at pH 5.4. Briefly, 50 μl of ^111InCl3 (18.5-37.0 MBq in 0.05 M HCl), 10 μl of 1 mg/ml DOTA-CycMSH or DOTA-GlyGlu-CycMSH aqueous solution and 400 μl of 0.5 M NH4OAc (pH 5.4) were added into a reaction vial and incubated at 75° C. for 45 min. After the incubation, 20 μl of 0.5% EDTA aqueous solution was added into the reaction vial to scavenge potential unbound ^111In. The radiolabeled complexes were purified to single species by Waters RP-HPLC (Milford, Mass.) on a Grace Vadyc C-18 reverse phase analytical column (Deerfield, Ill.) using a 20-minute gradient of 16-26% acetonitrile in 20 mM HCl aqueous solution with a flowrate of 1 ml/min. Purified peptide samples were purged with N2 gas for 20 minutes to remove the acetonitrile. The pH of final solution was adjusted to 7.4 with 0.1 N NaOH and normal saline for animal studies. The stability of ^111In-DOTA-CycMSH and ^111In-DOTA-GlyGlu-CycMSH was determined by incubation in mouse serum at 37° C. according to the published procedure (20) for various time periods, and monitored for degradation by RP-HPLC."}, "[3]": {"system": "B16/F1 murine melanoma-bearing C57 mice", "test": "Biodistribution in B16/F1 murine melanoma-bearing C57 mice", "assay_type": "in vivo, mouse", "procedure": "(§1) Biodistribution Studies: All the animal studies were conducted in compliance with Institutional Animal Care and Use Committee approval. The pharmacokinetics of ^111In-DOTA-CycMSH and ^111In-DOTA-GlyGlu-CycMSH were determined in B16/F1 murine melanoma-bearing C57 female mice (Harlan, Indianapolis, Ind.). C57 mice were inoculated subcutaneously with 1×10^6 B16/F1 murine melanoma cells in the right flank. After 10 days, when the weight of tumors reached approximately 0.2 g, 0.037 MBq of ^111In-DOTA-CycMSH or ^111In-DOTA-GlyGlu-CycMSH was injected into each mouse through the tail vein. Groups of 5 mice were sacrificed at 2, 4 and 24 h post-injection, and tumors and organs of interest were harvested, weighed and counted. Blood values were taken as 6.5% of the whole-body weight. The tumor uptake specificity of ^111In-DOTA-CycMSH and ^111In-DOTA-GlyGlu-CycMSH was determined by blocking tumor uptake with the co-injection of 10 μg (6.07 nmol) of unlabeled NDP-MSH, a linear α-MSH peptide analogue with picomolar affinity for the MC1 receptors present on murine melanoma cells. Statistical analysis was performed using the Student's t-test for unpaired data."}, "[4]": {"test": "Biodistribution in B16/F1 murine melanoma-bearing C57 mice", "assay_type": "in vivo, mouse", "settings": "female, C57, mouse, iv, 0.037 MBq, total radioactivity; for tissue uptake: all time points (2, 4, 24 h)", "procedure": "as §1"}, "[5]": {"test": "Urinary metabolites by HPLC in B16/F1 melanoma-bearing C57 mice", "assay_type": "in vivo, mouse", "settings": "urine, 2 h post-injection", "procedure": "Urinary Metabolites of ^111In-DOTA-CycMSH and ^111In-DOTA-GlyGlu-CycMSH: One hundred microliter of HPLC purified ^111In-DOTA-CycMSH (0.74-1.11 MBq, 0.82-1.12 ng) or ^111In-DOTA-GlyGlu-CycMSH (0.74-1.11 MBq, 0.90-1.35 ng) was injected into each B16/F1 murine melanoma-bearing C57 mouse through the tail vein. At 2 h after dose administration, mice were sacrificed and the urine was collected. The radioactive metabolites in the urine were analyzed by injecting aliquots of urine into HPLC. A 20-minute gradient of 16-26% acetonitrile/20 mM HCl was used for the urine analysis."}}, "note": "Where two headings read alike, the source gives them in different places. Residues, ends and D or L forms follow the SMILES beside them."}
{"smiles": "CCCC[C@@H]1NC(=O)[C@@H](NC(=O)[C@H](CCC(=O)O)NC(=O)CNC(=O)CN2CCN(CC(=O)O)CCN(CC(=O)O)CCN(CC(=O)O)CC2)CCCCNC(=O)[C@H](CC(=O)O)NC(=O)[C@H](C(C)C)NC(=O)[C@@H]2CCCN2C(=O)[C@H](CCCNC(=N)N)NC(=O)CNC(=O)[C@H](Cc2c[nH]c3ccccc23)NC(=O)[C@H](CCCNC(=N)N)NC(=O)[C@@H](Cc2ccccc2)NC(=O)[C@H](Cc2c[nH]cn2)NC(=O)[C@H](CCC(=O)O)NC1=O", "note": "[^111In-DOTA-GlyGlu-CycMSH, metal not drawn] (HELM PEPTIDE1{[O=C(O)CN1CCN(CC(=O)O)CCN(CC(=O)[*:2])CCN(CC(=O)O)CC1].G.E.K.[Nle].E.H.[dF].R.W.G.R.P.V.D}$PEPTIDE1,PEPTIDE1,4:R3-15:R2$$$V2.0)", "values": [{"measurement": "accumulation of activity in normal organs in whole-body image", "setting": "[1]", "result": "extremely low except for the kidneys"}, {"measurement": "stability in mouse serum", "setting": "[2]", "result": "stable"}, {"measurement": "tumor uptake with NDP co-injection as % of the tumor uptake without NDP co-injection", "setting": "[3]; 10 μg (6.07 nmol) non-radiolabeled NDP co-injection, 2 h after dose administration", "result": 2.6, "unit": "%"}, {"measurement": "tumor uptake", "setting": "[3]; 2 h post-injection, tail vein", "result": "10.40±1.40", "unit": "% ID/g"}, {"measurement": "kidney uptake higher than 111In-DOTA-ReCCMSH", "setting": "[3]; 4 h post-injection", "result": 29, "unit": "%"}, {"measurement": "less renal uptake than 111In-DOTA-CycMSH", "setting": "[3]; 4 h post-injection", "result": 44, "unit": "%"}, {"measurement": "renal uptake as % of that of 111In-DOTA-CMSH", "setting": "[3]; 4 h post-injection", "result": 34, "unit": "%"}, {"measurement": "tissue uptake", "setting": "[4]; bone, read-out: bone uptake", "result": "< 0.2", "unit": "%ID/g"}, {"measurement": "kidney uptake at 24 h", "setting": "[4]; kidney, 24 h after dose administration", "result": "9.06 ± 1.82", "unit": "%ID/g"}, {"measurement": "tissue uptake", "setting": "[4]; normal organs except the kidneys, read-out: normal organ uptakes except for the kidneys", "result": "< 0.8", "unit": "%ID/g"}, {"measurement": "tissue uptake at 2 h", "setting": "[4]; tumor, 2 h post-injection, tail vein", "result": "10.4 ± 1.4", "unit": "%ID/g"}, {"measurement": "tissue uptake at 4 h", "setting": "[4]; tumor, 4 h post-injection, tail vein", "result": "7.4 ± 0.43", "unit": "%ID/g"}, {"measurement": "tissue uptake at 24 h", "setting": "[4]; tumor, 24 h post-injection, tail vein", "result": "2.37 ± 0.28", "unit": "%ID/g"}, {"measurement": "dose excreted", "setting": "[4]; urine, by 2 h post-injection, read-out: injected radioactivity cleared through the urinary system", "result": "~90", "unit": "%"}, {"measurement": "urinary metabolites by RP-HPLC", "setting": "[5]", "result": "transformed to two more polar metabolites"}]}
